Results published in US20240277861A1, “ANTI-HEPATITIS B VIRUS AGENT TARGETING HOST FACTOR LIPG” (PUROTECH BIO, INC., priority 2021, published 2024).

Columns and labels:
HBV [1] = details: in vitro cell system; cited from earlier work
HBV [2] = assay: HBV attachment and uptake assay in HepG2-NTCP-C4-LIPG cells; format: cell-based; details: concentration-dependent
Description: (§1) HBV-DNA and cccDNA were quantified by qPCR as described below. Total DNA was extracted from cells using DNeasy Blood & Tissue Kit (Qiagen, Hilden, Germany). HBV-DNA was quantified by qPCR analysis as previously reported (Honda. M. et al., J. Infect. Dis., 213, 1096-1106, 2016). The extracted DNA (50 ng) was treated with 10 U of Plasmid safe DNase I (Epicentre, Madison. WI) at 37° C. for 60 minutes and then treated at 70° C. for 30 minutes for DNase inactivation, cccDNA was quantified by qPCR analysis as previously reported (Honda, M. et al., J. Infect. Dis. 213, 1096-1106, 2016). Quantitative RT-PCR was performed as described below. The GenElute™ Mammalian Total RNA Miniprep Kit (Sigma-Aldrich) was used for extraction of total RNA, and the High Capacity cDNA Reverse Transcription Kit (Applied Biosystems, Carlsbad, CA) was used for cDNA synthesis. The 7500 Real Time PCR System (Applied Biosystems) was used for RT-PCR. Primers 5′-[…]-3′ (SEQ ID NO: 31) and 5′-[…]-3′ (SEQ ID NO: 32) and a probe 5′-FAM-[…]-MGB-3′ (SEQ ID NO: 33) were used for pregenomic RNA. Primer pairs and probes for LIPG, NTCP. 18SrRNA, and ACTB were obtained from the TaqMan assay reagents library.
When the abundance of LIPG expression was compared among different liver cell lines. […] HepG2-NTCP-C4 cells with overexpression of FLAG-LIPG (HepG2-NTCP-C4-LIPG cells) were established (FIG. 2B), and the attachment and uptake of HBV into cells were assayed in the resulting cells. Heparin, which has been reported to inhibit HBV attachment (Schulze. A. et al., Hepatology 46: 1759-1768, 2007), and heparanase, an endo-β-D-glucuronidase that cleaves the heparan sulfate side chain in heparan sulfate proteoglycans (HSPGs) (Bame, KJ. Glycobiology,11: 91R-98R,2001), were used as control compounds. Cells (HepG2-NTCP-C4-LIPG cells and HepG2-NTCP-C4 control cells) were pretreated with these compounds for 1 hour and then with HBV at 4° C. for 3 hours to allow HBV to attach the cells, washed to wash out HBV, and further incubated at 37° C. for 12 hours to detect uptake of HBV (FIG. 2C). In addition, the cells were further cultured in a conventional culture medium for 3 days after HBV inoculation to detect HBV DNA and cccDNA in the cells (FIG. 2C). HBV attachment was detected by qPCR of HBV-DNA at 3 hours after HBV inoculation at 4° C. in the presence or absence of the compound (heparin or heparanase). HBV attachment (FIG. 2D), uptake (FIG. 2E), and replication of HBV DNA and cccDNA (FIGS. 2F and 2G) were all increased in the HepG2-NTCP-C4-LIPG cells compared to the HepG2-NTCP-C4 control cells.
Next, the effect of a LIPG inhibitor (GSK-264220A) on HBV attachment and uptake was examined. […] At the same time, this inhibitor had no effect on HepG2-NTCP-C4 control cells.

HBV-cccDNA = details: Patent Document 1; cited from earlier work
HBV [3] = assay: HBV attachment and uptake assay in HepG2-NTCP-C4 cells; format: cell-based; details: HepG2-NTCP-C4 control cells
Description: as §1, with “18SrRNA, and ACTB were obtained from the TaqMan assay reagents library.” left out
When the abundance of LIPG expression was compared among different liver cell lines. […] HBV attachment was detected by qPCR of HBV-DNA at 3 hours after HBV inoculation at 4° C. in the presence or absence of the compound (heparin or heparanase). […]

HBV [4] = assay: HBV attachment, uptake and replication in Huh7-LIPG cells; format: cell-based; details: Huh7-LIPG cells infected with HBV, 3 days after treatment
Description: as §1
When the abundance of LIPG expression was compared among different liver cell lines. […] HepG2-NTCP-C4 cells with overexpression of FLAG-LIPG (HepG2-NTCP-C4-LIPG cells) were established (FIG. 2B), and the attachment and uptake of HBV into cells were assayed in the resulting cells. Heparin, which has been reported to inhibit HBV attachment (Schulze. A. et al., Hepatology 46: 1759-1768, 2007), and heparanase, an endo-β-D-glucuronidase that cleaves the heparan sulfate side chain in heparan sulfate proteoglycans (HSPGs) (Bame, KJ. Glycobiology,11: 91R-98R,2001), were used as control compounds. […] HBV attachment was detected by qPCR of HBV-DNA at 3 hours after HBV inoculation at 4° C. in the presence or absence of the compound (heparin or heparanase). […]

[5] = biological target: T1, binding between preS1 and heparan sulfate enhanced by LIPG (Homo sapiens, UniProt Q9Y5X9); assay: Plate assay of binding between preS1 peptide and immobilized heparan sulfate with FLAG-LIPG; details: 10, 25, or 50 fmol of FLAG-LIPG per well
T1 construct: FLAG
T1 sequence (Q9Y5X9 21-500): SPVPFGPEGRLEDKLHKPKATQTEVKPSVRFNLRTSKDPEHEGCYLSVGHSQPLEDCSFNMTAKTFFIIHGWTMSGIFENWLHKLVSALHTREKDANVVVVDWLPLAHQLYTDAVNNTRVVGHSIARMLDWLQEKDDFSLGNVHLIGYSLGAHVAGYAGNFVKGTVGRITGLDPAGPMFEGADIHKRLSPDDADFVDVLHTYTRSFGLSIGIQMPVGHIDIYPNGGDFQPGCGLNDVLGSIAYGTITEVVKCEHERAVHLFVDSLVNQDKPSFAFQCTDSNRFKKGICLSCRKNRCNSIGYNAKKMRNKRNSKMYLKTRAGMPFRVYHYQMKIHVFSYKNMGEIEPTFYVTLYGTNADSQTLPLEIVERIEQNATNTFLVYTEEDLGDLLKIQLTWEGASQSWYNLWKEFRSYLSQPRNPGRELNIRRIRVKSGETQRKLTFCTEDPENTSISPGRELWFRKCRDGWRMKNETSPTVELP
Description: FIG. 22-2 The effect of LIPG to promote HBV entry into cells and the effect of a LIPG-binding peptide and Netrin-1 to inhibit HBV entry into cells. E: A biotin-labeled form of heparan sulfate was added to a streptavidin-coated 96 well plate and left overnight at 4° C. to allow the heparan sulfate to bind to the plate. This plate was washed with TBS, and 10, 25, or 50 fmol of FLAG-LIPG was then added to each well to allow the reaction to proceed at room temperature for 2 hours. After the plate was washed, 10 or 100 nmol of LIPG-binding peptide LIPH4-NTNBS, LIPH4-23S, LIPH4-NTNBSA, or LIPH4-23SA was added to each well to allow the treatment to proceed at room temperature for 1 hour. Subsequently, the plate was washed, and 0.1 nmol of preS1-TMR was added to each well to allow the treatment to proceed at room temperature for another 1 hour. The plate was washed and then placed in a plate reader to measure the fluorescence of TMR.
Furthermore, PXB cells treated with Netrin-1 were further treated with FLAG-LIPG, and the uptake of the preS1 peptide was examined, to find that the enhancement of the uptake of the preS1 peptide by FLAG-LIPG was suppressed by Netrin-1 (FIG. 22D). In addition, a biotin-labeled heparan sulfate was immobilized on a streptavidin-coated plate and the preS1 peptide was added thereto to study the binding between the preS1 region of HBV and heparan sulfate present on the cell surface.

[6] = test system: LIPG-mediated HBV attachment and entry (preS1 peptide) in PXB cells; assay: Uptake of TMR-labeled preS1 peptide into PXB cells (confocal microscopy); format: cell-based, human; details: PXB cells treated with FLAG-LIPG 3 hours
Description: FIG. 22-1 The effect of LIPG to promote HBV entry into cells and the effect of a LIPG-binding peptide and Netrin-1 to inhibit HBV entry into cells. A: PXB cells were mixed with a purified form of FLAG-LIPG and incubated for 3 hours. The resulting cells were mixed with a preS1 peptide fluorescently labeled with TMR (tetramethylrhodamine) and incubated for 30 minutes, and then observed with a confocal microscope. The fluorescence of the preS1 peptide was detected, and the fluorescence intensity was normalized to the DAPI fluorescence intensity. p<0.05. B: PXB cells were treated with 100 nM LIPG-binding peptide LIPH4-23S or LIPH4-NTNBS for 15 hours, and a purified form of FLAG-LIPG was added thereto, followed by incubation for 3 hours. The resulting cells were mixed with a preS1 peptide fluorescently labeled with TMR and incubated for 30 minutes, and then observed with a confocal microscope. The fluorescence of the preS1 peptide was detected, and the fluorescence intensity was normalized to the DAPI fluorescence intensity. *:p<0.05. C: PXB cells were mixed with Netrin-1 and incubated for 3 hours. […] The fluorescence of the preS1 peptide was detected, and the fluorescence intensity was normalized to the DAPI fluorescence intensity. *:p<0.05. […] The fluorescence of the preS1 peptide was detected, and the fluorescence intensity was normalized to the DAPI fluorescence intensity. […]

Molecule: COc1cc2ncnc(Nc3ccc(F)c(Cl)c3)c2cc1OCCCN1CCOCC1 [gefitinib]
- HBV infection (HBV [1]): reduces HBV infection

Molecule: Cc1oc(S(=O)(=O)N2CCCCC2)cc1NC(=O)Nc1ccccc1 [GSK-264220A]
- HBV attachment (HBV-DNA) (HBV [2]; 3 hours after HBV inoculation at 4° C.): inhibited
- HBV uptake (HBV-DNA) (HBV [2]; 12 hours after being recultured at 37° C.): inhibited
- HBV-cccDNA (HBV-cccDNA): effective in reducing HBV-cccDNA
- HBV attachment and uptake (HBV [3]): no effect
- LIPG-mediated increase in HBV replication (cccDNA) (HBV [4]): reduced HBV replication

B1: FLAG-LIPG: purified form of FLAG-tagged LIPG added to PXB cells or plate (protein)
chain: SPVPFGPEGRLEDKLHKPKATQTEVKPSVRFNLRTSKDPEHEGCYLSVGHSQPLEDCSFNMTAKTFFIIHGWTMSGIFENWLHKLVSALHTREKDANVVVVDWLPLAHQLYTDAVNNTRVVGHSIARMLDWLQEKDDFSLGNVHLIGYSLGAHVAGYAGNFVKGTVGRITGLDPAGPMFEGADIHKRLSPDDADFVDVLHTYTRSFGLSIGIQMPVGHIDIYPNGGDFQPGCGLNDVLGSIAYGTITEVVKCEHERAVHLFVDSLVNQDKPSFAFQCTDSNRFKKGICLSCRKNRCNSIGYNAKKMRNKRNSKMYLKTRAGMPFRVYHYQMKIHVFSYKNMGEIEPTFYVTLYGTNADSQTLPLEIVERIEQNATNTFLVYTEEDLGDLLKIQLTWEGASQSWYNLWKEFRSYLSQPRNPGRELNIRRIRVKSGETQRKLTFCTEDPENTSISPGRELWFRKCRDGWRMKNETSPTVELPDYKDDDDK
- binding between preS1 and heparan sulfate (TMR fluorescence) [5]: enhanced by FLAG-LIPG in a concentration-dependent manner
- preS1 peptide present in the cells [6]: increased by FLAG-LIPG in a concentration-dependent manner
